Measurements taken from ChEMBL document CHEMBL1255288, “Linezolid resistance in Staphylococcus aureus: gene dosage effect, stability, fitness costs, and cross-resistances” (2008).
Converted amounts (≈) assume the structure as drawn. The source made the active and inactive calls. The calls are words filed in the database; no cut-off is given here.

Legend:
Staphylococcus aureus [1] = assay: Antibacterial activity against Staphylococcus aureus T991 by disc diffusion method; format: functional, organism-based
Staphylococcus aureus [2] = assay: Antibacterial activity against Staphylococcus aureus T2019 with G2576T mutation in 23S rRNA genes by disc diffusion method; format: functional, organism-based
Staphylococcus aureus [3] = assay: Antibacterial activity against Staphylococcus aureus T2019 with G2576T mutation in 23S rRNA genes by Etest method; format: functional
Staphylococcus aureus [4] = assay: Antibacterial activity against Staphylococcus aureus T991 by Etest method; format: functional
Staphylococcus aureus [5] = assay: Antibacterial activity against Staphylococcus aureus T1888 expressing 23S rrn 3 G2576T and rrn 5 G2576T mutants by Etest method; format: functional
Staphylococcus aureus [6] = assay: Antibacterial activity against Staphylococcus aureus T2019/50 expressing 23S rrn1 G2576T, rrn3 G2576T, rrn4 G2576T and rrn5 G2576T mutants by Etest method; format: functional
Staphylococcus aureus [7] = assay: Antibacterial activity against Staphylococcus aureus T2019 expressing 23S rrn1 G2576T, rrn2 G2576T, rrn3 G2576T, rrn4 G2576T and rrn5 G2576T mutants by Etest method; format: functional
Staphylococcus aureus [8] = assay: Antibacterial activity against Staphylococcus aureus T1910 expressing 23S rrn2 G2576T, rrn3 G2576T, rrn4 G2576T and rrn5 G2576T mutants by Etest method; format: functional
Staphylococcus aureus [9] = assay: Antibacterial activity against Staphylococcus aureus T1900 expressing 23S rrn3 G2576T, rrn4 G2576T and rrn5 G2576T mutants by Etest method; format: functional

Molecule	MIC (Staphylococcus aureus [3])	MIC (Staphylococcus aureus [4])	other results
O=C(N[C@H](CO)[C@H](O)c1ccc([N+](=O)[O-])cc1)C(Cl)Cl	–	–	Activity (Staphylococcus aureus [1]): Active; MIC (Staphylococcus aureus [2]): inactive
CCC[C@@H]1C[C@@H](C(=O)N[C@@H]([C@H]2O[C@H](SC)[C@H](O)[C@@H](O)[C@H]2O)[C@H](C)Cl)N(C)C1 [CLINDAMYCIN]	> 256 µg/mL	> 256 µg/mL	–
C[C@H]1c2cccc(O)c2C(=O)C2=C(O)[C@]3(O)C(=O)C(C(N)=O)=C(O)[C@@H](N(C)C)[C@@H]3[C@@H](O)[C@@H]21.O [DOXYCYCLINE]	6 µg/mL	6 µg/mL	–
CC[C@H]1OC(=O)[C@H](C)[C@@H](O[C@H]2C[C@@](C)(OC)[C@@H](O)[C@H](C)O2)[C@H](C)[C@@H](O[C@@H]2O[C@H](C)C[C@H](N(C)C)[C@H]2O)[C@](C)(O)C[C@@H](C)C(=O)[C@H](C)[C@@H](O)[C@]1(C)O [ERYTHROMYCIN]	> 256 µg/mL	> 256 µg/mL	–
CC(=O)O[C@H]1C[C@@]2(C)[C@@H](C[C@@H](O)[C@H]3[C@@]4(C)CC[C@@H](O)[C@@H](C)[C@@H]4CC[C@@]32C)/C1=C(\CCC=C(C)C)C(=O)O [FUSIDIC ACID]	0.5 µg/mL (≈ 0.968 µM)	0.19 µg/mL (≈ 0.368 µM)	–
CC(=O)NC[C@H]1CN(c2ccc(N3CCOCC3)c(F)c2)C(=O)O1 [LINEZOLID]	128 µg/mL (≈ 379 µM)	1 µg/mL (≈ 2.96 µM)	MIC (Staphylococcus aureus [5]): 8 µg/mL (≈ 23.7 µM); MIC (Staphylococcus aureus [6]): 64 µg/mL (≈ 190 µM); MIC (Staphylococcus aureus [7]): 128 µg/mL (≈ 379 µM); MIC (Staphylococcus aureus [8]): 64 µg/mL (≈ 190 µM); MIC (Staphylococcus aureus [9]): 32 µg/mL (≈ 94.9 µM)
CN(C)c1cc(NC(=O)CNC(C)(C)C)c(O)c2c1C[C@H]1C[C@H]3[C@H](N(C)C)C(O)=C(C(N)=O)C(=O)[C@@]3(O)C(O)=C1C2=O [TIGECYCLINE]	0.75 µg/mL (≈ 1.28 µM)	1 µg/mL (≈ 1.71 µM)	–
GENTAMICIN	256 µg/mL	256 µg/mL	–
